# From US20020132817A1, “Heterocyclic compounds, their production and use” (priority 1998, published 2002)
row,Structure (SMILES),melting point
1,"Cc1ccc(-c2c3n(c(=O)c4ncccc24)CCN(Cc2cc(C(F)(F)F)cc(C(F)(F)F)c2)C3=O)cc1 [Reference Example 55, 7-[3,5-Bis(trifluoromethyl)benzyl]-6,7,8,9-tetrahydro-5-(4-methylphenyl)-6,11-dioxo-11H-pyrazino[2,1-g][1,7]naphthyridine]",270 to 271 °C
2,"Cc1ccc(-c2c3n(c(=O)c4ncccc24)CC[C@@H](C)CN(Cc2cc(C(F)(F)F)cc(C(F)(F)F)c2)C3=O)cc1 [Reference Example 72, (9R)-7-[3,5-Bis(trifluoromethyl)benzyl]-6,7,8,9,10,11-hexahydro-9-methyl-5-(4-methylphenyl)-6,13-dioxo-13H-[1,4]diazocino[2,1-g][1,7]naphthyridine]",226 to 228 °C
3,"CS(=O)(=O)NCc1cc(-c2ccccc2)c2c(n1)OCCN(Cc1cc(C(F)(F)F)cc(C(F)(F)F)c1)C2=O [Reference Example 103, 4-[3,5-Bis(trifluoromethyl)benzyl]-2,3,4,5-tetrahydro-8-methanesulfonylaminomethyl-5-oxo-6-phenylpyrido[3,2-f][1,4]oxazepine]",194 to 195 °C
4,"Cc1cnc2c(c1-c1ccccc1)C(=O)N(Cc1cc(C(F)(F)F)cc(C(F)(F)F)c1)C[C@@H](C)CO2 [Reference Example 86, (R)-5-[3,5-Bis(trifluoromethyl)benzyl]-2,3,4,5-tetrahydro-3,8-dimethyl-6-oxo-7-phenyl-6H-pyrido[2,3-b][1,5]oxazocine]",147 to 149 °C
5,"O=C1c2c(-c3ccccc3)ccnc2OCCN1Cc1ccc(Cl)c(Cl)c1 [Reference Example 119, 4-(3,4-Dichlorobenzyl)-2,3,4,5-tetrahydro-5-oxo-6-phenylpyrido[3,2-f][1,4]oxazepine]",189 to 192 °C
6,"Cc1cnc2c(c1-c1ccccc1)C(=O)N(Cc1ccccc1)CCN(C)C2=O [Reference Example 106, 6-Benzyl-5,6,7,8,9,10-hexahydro-3,9-dimethyl-5,10-dioxo-4-phenylpyrido[2,3-f][1,4]diazocine]",183 to 184 °C
7,"O=C(c1cc(-c2ccccc2)c2c(n1)OCCN(Cc1cc(C(F)(F)F)cc(C(F)(F)F)c1)C2=O)N1CCCCC1 [Reference Example 115, 4-[3,5-Bis(trifluoromethyl)benzyl]-2,3,4,5-tetrahydro-5-oxo-6-phenyl-8-piperidinocarbonylpyrido[3,2-f][1,4]oxazepine]",218 to 220 °C
8,"CCCCNC(=O)c1cc(-c2ccccc2)c2c(n1)OCCN(Cc1cc(C(F)(F)F)cc(C(F)(F)F)c1)C2=O [Reference Example 114, 4-[3,5-Bis(trifluoromethyl)benzyl]-N-n-butyl-2,3,4,5-tetrahydro-5-oxo-6-phenylpyrido[3,2-f][1,4]oxazepine-8-carboxamide]",194 to 196 °C
9,"Cc1ccc(-c2c3n(c(=O)c4ncccc24)CC[C@H](C)CN(Cc2cc(C(F)(F)F)cc(C(F)(F)F)c2)C3=O)cc1 [Reference Example 74, (9S)-7-[3,5-Bis(trifluoromethyl)benzyl]-6,7,8,9,10,11-hexahydro-9-methyl-5-(4-methylphenyl)-6,13-dioxo-13H-[1,4]diazocino[2,1-g][1,7]naphthyridine]",227 to 228 °C
10,"O=C1c2c(-c3ccccc3)ccnc2OCCN1Cc1ccccc1 [Reference Example 121, 4-Benzyl-2,3,4,5-tetrahydro-5-oxo-6-phenylpyrido[3,2-f][1,4]oxazepine]",209 to 211 °C
11,"COc1cc(CN2CCOc3nccc(-c4ccccc4)c3C2=O)cc(OC)c1OC [Reference Example 118, 2,3,4,5-Tetrahydro-5-oxo-6-phenyl-4-(3,4,5-trimethoxybenzyl)pyrido[3,2-f][1,4]oxazepine]",177 to 179 °C
12,"CC(=O)NCc1cc(-c2ccccc2)c2c(n1)OCCN(Cc1cc(C(F)(F)F)cc(C(F)(F)F)c1)C2=O [Reference Example 102, 8-Acetylaminomethyl-4-[3,5-bis(trifluoromethyl)benzyl]-2,3,4,5-tetrahydro-5-oxo-6-phenylpyrido[3,2-f][1,4]oxazepine]",223 to 224 °C
13,"C[C@@H]1COc2nccc(-c3ccccc3)c2C(=O)N(Cc2ccccc2)C1 [Reference Example 123, (S)-5-Benzyl-2,3,4,5-tetrahydro-3-methyl-6-oxo-7-phenyl-6H-pyrido[2,3-b][1,5]oxazocine]",139 to 141 °C

# Second part, the molecule after the results:
row,melting point,Structure (SMILES)
1,203 to 205 °C,"Cc1cnc2c(c1-c1ccccc1)C(=O)N(Cc1cc(C(F)(F)F)cc(C(F)(F)F)c1)CCN(C)C2=O [Reference Example 104, 6-[3,5-Bis(trifluoromethyl)benzyl]-5,6,7,8,9,10-hexahydro-3,9-dimethyl-5,10-dioxo-4-phenylpyrido[2,3-f][1,4]diazocine]"
2,235 to 236 °C,"CN(C)C(=O)c1cc(-c2ccccc2)c2c(n1)OCCN(Cc1cc(C(F)(F)F)cc(C(F)(F)F)c1)C2=O [Reference Example 113, 4-[3,5-Bis(trifluoromethyl)benzyl]-N,N-dimethyl-2,3,4,5-tetrahydro-5-oxo-6-phenylpyrido[3,2-f][1,4]oxazepine-8-carboxamide]"
3,165 to 166 °C,"CSCc1cc(-c2ccccc2)c2c(n1)OCCN(Cc1cc(C(F)(F)F)cc(C(F)(F)F)c1)C2=O [Reference Example 96, 4-[3,5-Bis(trifluoromethyl)benzyl]-2,3,4,5-tetrahydro-8-methylthiomethyl-5-oxo-6-phenylpyrido[3,2-f][1,4]oxazepine]"
4,142 to 143 °C,"C[C@@H]1COc2nccc(-c3ccccc3)c2C(=O)N(Cc2cc(C(F)(F)F)cc(C(F)(F)F)c2)C1 [Reference Example 125, (S)-5-[3,5-Bis(trifluoromethyl)benzyl]-2,3,4,5-tetrahydro-3-methyl-6-oxo-7-phenyl-6H-pyrido[2,3-b][1,5]oxazocine]"
5,164 to 165 °C,"Cc1cc(-c2ccccc2)c2c(n1)OCCCN(Cc1cc(C(F)(F)F)cc(C(F)(F)F)c1)C2=O [Reference Example 88, 5-[3,5-Bis(trifluoromethyl)benzyl]-2,3,4,5-tetrahydro-9-methyl-6-oxo-7-phenyl-6H-pyrido[2,3-b][1,5]oxazocine]"
6,200 to 201 °C,"O=C1c2c(-c3ccccc3)ccnc2OCCN1Cc1cc(C(F)(F)F)cc(C(F)(F)F)c1 [Reference Example 65, 4-[3,5-Bis(trifluoromethyl)benzyl]-2,3,4,5-tetrahydro-5-oxo-6-phenylpyrido[3,2-f][1,4]oxazepine]"
7,242 to 243 °C,"O=C1c2c(-c3ccccc3)ccnc2NCCN1Cc1cc(C(F)(F)F)cc(C(F)(F)F)c1 [Reference Example 75, 4-[3,5-Bis(trifluoromethyl)benzyl]-2,3,4,5-tetrahydro-5-oxo-6-phenyl-1H-pyrido[2,3-e][1,4]diazepine]"
8,152 to 154 °C,"CNCc1cc(-c2ccccc2)c2c(n1)OCCN(Cc1cc(C(F)(F)F)cc(C(F)(F)F)c1)C2=O [Reference Example 98, 4-[3,5-Bis(trifluoromethyl)benzyl]-2,3,4,5-tetrahydro-8-methylaminomethyl-5-oxo-6-phenylpyrido[3,2-f][1,4]oxazepine]"
9,167 to 169 °C,"CN1CCN(Cc2cc(C(F)(F)F)cc(C(F)(F)F)c2)C(=O)c2c(-c3ccccc3)ccnc2C1=O [Reference Example 105, 6-[3,5-Bis(trifluoromethyl)benzyl]-5,6,7,8,9,10-hexahydro-9-methyl-5,10-dioxo-4-phenylpyrido[2,3-f][1,4]diazocine]"
